Measured values from ChEMBL document CHEMBL1127930, “Design, synthesis and biological properties of structurally non-related endotoxin inhibitors” (Bioorg Med Chem Lett, 1994).

Test system: Escherichia coli
Experiment: Compound was evaluated to inhibit the LAL response produced by two endotoxin units of Escherichia coli LPS
Type: functional, organism-based

SMILES | Concentration [µg/mL]
CCCCCCCCCCCCCC[N+](C)(C)C[C@@H]1OC(C)(C)O[C@H]1C[N+](C)(C)CCCCCCCCCCCCCC | 75
CCCCCCCCCCCCCC[N+](C)(C)C[C@@H]1OCO[C@H]1C[N+](C)(C)CCCCCCCCCCCCCC | 75
